Measured values: patent publication US10941157B2, “Pesticidal compositions and uses thereof” (Gilead Apollo, LLC, priority 2015, dated 2021)
Values after ≈ are worked out from the molar mass of the structure shown. Like-named read-outs stand apart in the source and are kept apart here.

How the values were obtained:
Type in all cases: cell-based
[1] = tested on: Septoria tritici (St); assay: In vitro pathogen growth inhibition assay, St; details: Zymoseptoria tritici, 48 h
How it was run: (§1)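 Spores in 17% V8 liquid medium, or 1.5 mm Rs mycelial plugs in ¼ PDB, incubated with compound; final concentration checked by OD600 for precipitation. OD readings at 24 and 48 h, blank-subtracted, plus visual ratings; value is concentration giving ≥90% growth inhibition.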

[2] = tested on: Phytophthora capsici (Pc); assay: In vitro pathogen growth inhibition assay, Pc; details: 48 h
How it was run: (§2)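 Spores of Dm, Fv and Pc were diluted in 17% V8 liquid medium; Rs used 1.5 mm mycelial plugs in ¼ PDB. Compounds from 2.5 mg/ml DMSO stocks were combined with inoculum, growth was read by OD600 at 24 and 48 h with blank subtraction, and the reported value is the concentration giving ≥90% inhibition.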

[3] = tested on: Fusarium moniliforme (Fm); assay: In vitro pathogen growth inhibition assay, Fm; details: Fusarium verticillioides
How it was run: as §1

[4] = tested on: Rhizoctonia solani (Rs); assay: In vitro pathogen growth inhibition assay, Rs (mycelial plugs); details: Rhizoctonia solani, 48 h, mycelial plugs
How it was run: as §2

[5] = tested on: Fusarium virguliforme (Fv); assay: In vitro pathogen growth inhibition assay, Fv
How it was run: as §2

[6] = tested on: Botrtyis cinerea (Bc); assay: In vitro pathogen growth inhibition assay, Bc; details: 48 h
How it was run: as §1

[7] = tested on: Collectotrichum graminicola (Cg); assay: In vitro pathogen growth inhibition assay, Cg; details: 48 h
How it was run: as §1

[8] = tested on: Diplodia maydis (Dm); assay: In vitro pathogen growth inhibition assay, Dm; details: Stenocarpella maydis, 48 h
How it was run: as §2

[9] = ≥90% growth inhibition, 48 hours, vs 2% DMSO control, read-out: Compound Concentration (ppm) sufficient for ≥90% inhibition of St
[10] = ≥90% growth inhibition, 48 hours, vs 2% DMSO control, read-out: Compound Concentration (ppm) sufficient for ≥90% inhibition of Pc
[11] = ≥90% growth inhibition, 48 hours, vs 2% DMSO control, read-out: Compound Concentration (ppm) sufficient for ≥90% inhibition of Fm
[12] = ≥90% growth inhibition, 48 hours, vs 2% DMSO control, read-out: Compound Concentration (ppm) sufficient for ≥90% inhibition of Rs
[13] = ≥90% growth inhibition, 48 hours, vs 2% DMSO control, read-out: Compound Concentration (ppm) sufficient for ≥90% inhibition of Fv
[14] = ≥90% growth inhibition, 48 hours, vs 2% DMSO control, read-out: Compound Concentration (ppm) sufficient for ≥90% inhibition of Bc
[15] = ≥90% growth inhibition, 48 hours, vs 2% DMSO control, read-out: Compound Concentration (ppm) sufficient for ≥90% inhibition of Cg
[16] = ≥90% growth inhibition, 48 hours, vs 2% DMSO control, read-out: Compound Concentration (ppm) sufficient for ≥90% inhibition of Dm
[17] = ≥90% inhibition, 48 hours vs 2% DMSO control, read-out: Compound Concentration (ppm) sufficient for ≥90% inhibition of growth, St
[18] = ≥90% inhibition, 48 hours vs 2% DMSO control, read-out: Compound Concentration (ppm) sufficient for ≥90% inhibition of growth, Pc
[19] = ≥90% inhibition, 48 hours vs 2% DMSO control, read-out: Compound Concentration (ppm) sufficient for ≥90% inhibition of growth, Fm
[20] = ≥90% inhibition, 48 hours vs 2% DMSO control, read-out: Compound Concentration (ppm) sufficient for ≥90% inhibition of growth, Rs
[21] = ≥90% inhibition, 48 hours vs 2% DMSO control, read-out: Compound Concentration (ppm) sufficient for ≥90% inhibition of growth, Fv
[22] = ≥90% inhibition, 48 hours vs 2% DMSO control, read-out: Compound Concentration (ppm) sufficient for ≥90% inhibition of growth, Bc
[23] = ≥90% inhibition, 48 hours vs 2% DMSO control, read-out: Compound Concentration (ppm) sufficient for ≥90% inhibition of growth, Cg
[24] = ≥90% inhibition, 48 hours vs 2% DMSO control, read-out: Compound Concentration (ppm) sufficient for ≥90% inhibition of growth, Dm

| SMILES | IC90 [1, 9] | IC90 [2, 10] | IC90 [3, 11] | IC90 [4, 12] | IC90 [5, 13] | IC90 [6, 14] | IC90 [7, 15] | IC90 [8, 16] | IC90 [1, 17] | IC90 [2, 18] | IC90 [3, 19] | IC90 [4, 20] | IC90 [5, 21] | IC90 [6, 22] | IC90 [7, 23] | IC90 [8, 24] |
| --- | --- | --- | --- | --- | --- | --- | --- | --- | --- | --- | --- | --- | --- | --- | --- | --- |
| CCNC(=O)C(C)(C)n1c(=O)c2c(C)c(C(=O)OCC)sc2n(C[C@H](OCCC#N)c2cc(F)ccc2O)c1=O [Compound I-302] | > 50 µg/mL | > 50 µg/mL | ≥ 2 µg/mL | 0.08 µg/mL (≈ 0.139 µM) | 2 µg/mL (≈ 3.48 µM) | 10 µg/mL (≈ 17.4 µM) | 50 µg/mL (≈ 87 µM) | 50 µg/mL (≈ 87 µM) |  |  |  |  |  |  |  |  |
| COc1ccccc1[C@H](Cn1c(=O)n(C(C)(C)C(=O)NCC(C)C)c(=O)c2c(C)c(-n3nccn3)sc21)OC1CCOCC1 [Compound I-041] |  |  |  |  |  |  |  |  | > 10 µg/mL | > 50 µg/mL | 0.08 µg/mL (≈ 0.128 µM) | 0.08 µg/mL (≈ 0.128 µM) | 2 µg/mL (≈ 3.2 µM) | 0.4 µg/mL (≈ 0.64 µM) | 2 µg/mL (≈ 3.2 µM) | ≥ 2 µg/mL |
| Cc1c(-n2cccn2)sc2c1c(=O)n(C(C)(C)C(=O)NC(C)C)c(=O)n2C[C@H](OCCC#N)c1cc(F)ccc1O [Compound I-283] | > 50 µg/mL | > 50 µg/mL | 2 µg/mL (≈ 3.43 µM) | 2 µg/mL (≈ 3.43 µM) | 10 µg/mL (≈ 17.2 µM) | 10 µg/mL (≈ 17.2 µM) | 50 µg/mL (≈ 85.8 µM) | > 50 µg/mL |  |  |  |  |  |  |  |  |
| COc1ccc(F)cc1[C@H](Cn1c(=O)n(C(C)(C)C(=O)NC(C)C)c(=O)c2c(C)c(-c3ncco3)sc21)OC1CCOCC1 [Compound I-015] |  |  |  |  |  |  |  |  | > 10 µg/mL | > 50 µg/mL | 0.08 µg/mL (≈ 0.127 µM) | 10 µg/mL (≈ 15.9 µM) | 0.4 µg/mL (≈ 0.636 µM) | 0.4 µg/mL (≈ 0.636 µM) | 2 µg/mL (≈ 3.18 µM) | ≥ 0.4 µg/mL |
| COc1ccc(F)cc1[C@H](Cn1c(=O)n(C(C)(C)C(N)=O)c(=O)c2c(C)c(-n3cccn3)sc21)O[C@H]1CC[C@@H](O)CC1 [Compound I-150] |  |  |  |  |  |  |  |  | > 50 µg/mL | > 50 µg/mL | 2 µg/mL (≈ 3.34 µM) | 10 µg/mL (≈ 16.7 µM) | 10 µg/mL (≈ 16.7 µM) | 2 µg/mL (≈ 3.34 µM) | 50 µg/mL (≈ 83.4 µM) | ≥ 10 µg/mL |
| CNC(=O)C(C)(C)n1c(=O)c2c(C)c(-n3nccn3)sc2n(C[C@H](OC(C)C)c2cc(F)ccc2OC)c1=O [Compound I-132] |  |  |  |  |  |  |  |  | > 50 µg/mL | > 50 µg/mL | 0.4 µg/mL (≈ 0.716 µM) | ≥ 2 µg/mL | 0.4 µg/mL (≈ 0.716 µM) | 2 µg/mL (≈ 3.58 µM) | ≥ 2 µg/mL | 10 µg/mL (≈ 17.9 µM) |
| COc1ccccc1[C@H](Cn1c(=O)n(C(C)(C)C(=O)N2CCCCC2)c(=O)c2c(C)c(-n3nccn3)sc21)OC1CCOCC1 [Compound I-033] |  |  |  |  |  |  |  |  | > 10 µg/mL | > 50 µg/mL | 0.08 µg/mL (≈ 0.126 µM) | 0.08 µg/mL (≈ 0.126 µM) | 0.4 µg/mL (≈ 0.628 µM) | 0.4 µg/mL (≈ 0.628 µM) | ≥ 0.4 µg/mL | ≥ 0.4 µg/mL |
| COc1ccc(F)cc1[C@H](Cn1c(=O)n(C(C)(C)C(=O)N2CCCCC2)c(=O)c2c(C)c(-n3nccn3)sc21)OCC(C)C [Compound I-027] |  |  |  |  |  |  |  |  | > 10 µg/mL | > 50 µg/mL | 0.08 µg/mL (≈ 0.128 µM) | 0.4 µg/mL (≈ 0.638 µM) | 2 µg/mL (≈ 3.19 µM) | 0.4 µg/mL (≈ 0.638 µM) | 0.4 µg/mL (≈ 0.638 µM) | 0.4 µg/mL (≈ 0.638 µM) |
| Cc1ccc(F)cc1[C@H](Cn1c(=O)n(C(C)(C)C(=O)NC(C)C)c(=O)c2c(C)c(-n3nccn3)sc21)OCCO [Compound I-245] | ≥ 2 µg/mL | 50 µg/mL (≈ 87.3 µM) | 0.08 µg/mL (≈ 0.14 µM) | 0.08 µg/mL (≈ 0.14 µM) | 0.08 µg/mL (≈ 0.14 µM) | 0.4 µg/mL (≈ 0.698 µM) | 0.4 µg/mL (≈ 0.698 µM) | 2 µg/mL (≈ 3.49 µM) |  |  |  |  |  |  |  |  |
| COc1ccc(Br)cc1[C@H](Cn1c(=O)n(C(C)(C)C(=O)NC(C)C)c(=O)c2c(C)c(-n3nccn3)sc21)OCC(C)(C)C#N [Compound I-270] | > 50 µg/mL | > 50 µg/mL | 0.08 µg/mL (≈ 0.117 µM) | > 50 µg/mL | 0.4 µg/mL (≈ 0.583 µM) | 0.4 µg/mL (≈ 0.583 µM) | 2 µg/mL (≈ 2.91 µM) | 2 µg/mL (≈ 2.91 µM) |  |  |  |  |  |  |  |  |
